Key:
MLL-AF9 NRas cells = assay: NRAS IC50 (MLL-AF9 NRas cells); format: cell-based; conditions: Table 10
[1] = Rat microsomal stability (RLM); format: in vitro ADME; conditions: Table 10
MLL-AF9/FLT3-ITD cells = format: cell-based; conditions: Homo sapiens, MLL-AF9, Table 10

SMILES | IC50 (MLL-AF9 NRas cells) | Stability [1] | IC50 (MLL-AF9/FLT3-ITD cells)
c1cc(NC2CCNC2)nc(-c2cnc3cc(OCCN4CCOCC4)c(-c4cn[nH]c4)cn23)c1 (stereo not drawn) [Compound I-41, 6-(7-(2-morpholinoethoxy)-6-(1H-pyrazol-4-yl)imidazo[1,2-a]pyridin-3-yl)-N-(pyrrolidin-3-yl)pyridin-2-amine] | 17600 nM | >30.0 min | –
COc1cc2ncc(-c3cccc(NC4CCNC4)n3)n2cc1-c1cnn(CCN2CCOCC2)c1 (stereo not drawn) [Compound I-26] | 15700 nM | >30.0 min | 20 nM
COc1cc2ncc(-c3cccc(NC4CCNC4)n3)n2cc1-c1cc[nH]c1 (stereo not drawn) [Compound I-27, 6-(7-methoxy-6-(1H-pyrrol-3-yl)imidazo[1,2-a]pyridin-3-yl)-N-(pyrrolidin-3-yl)pyridin-2-amine] | 4430 nM | >30.0 min | –
COc1ccn2c(-c3cccc(NC4CNC4)n3)cnc2c1 [Compound I-50, N-(azetidin-3-yl)-6-(7-methoxyimidazo[1,2-a]pyridin-3-yl)pyridin-2-amine] | – | >30.0 min | –
COc1cc2ncc(-c3cccc(N(C)C4CCNC4)n3)n2cc1-c1cn[nH]c1 (stereo not drawn) [Compound I-31, 6-(7-methoxy-6-(1H-pyrazol-4-yl)imidazo[1,2-a]pyridin-3-yl)-N-methyl-N-(pyrrolidin-3-yl)pyridin-2-amine] | 16600 nM | – | –
CC(=O)N1CC(Nc2cccc(-c3cnc4ccc(Cl)cn34)n2)C1 [Compound I-57] | – | >30.0 min | 399 nM
Fc1cc(F)c(-c2cnc3ccc(Cl)cn23)nc1NC1CNC1 [Compound I-47] | 1880 nM | >30.0 min | –
Cc1ccn2c(-c3cccc(NC4CNC4)n3)cnc2c1 [Compound I-61, N-(azetidin-3-yl)-6-(7-methylimidazo[1,2-a]pyridin-3-yl)pyridin-2-amine] | – | >30.0 min | –
c1cc(N[C@H]2CCNC2)nc(-c2cnc3ccc(-c4cn[nH]c4)cn23)c1 [Compound I-44] | – | – | 17 nM
O=C(c1ccccc1)N1CC(Nc2cccc(-c3cnc4ccc(Cl)cn34)n2)C1 [Compound I-58] | – | 8.0 min | 709 nM
Cc1ccc(NC2CNC2)nc1-c1cnc2ccc(Cl)cn12 [Compound I-49] | – | – | 892 nM
COc1cc(-c2cn[nH]c2)cn2c(-c3cccc(NC4CCNC4)n3)cnc12 (stereo not drawn) [Compound I-37] | 16600 nM | 2.3 min | 2220 nM
COc1cc2ncc(-c3cccc(NC4CCNC4)n3)n2cc1-c1c(C)n[nH]c1C (stereo not drawn) [Compound I-25, 6-(6-(3,5-dimethyl-1H-pyrazol-4-yl)-7-methoxyimidazo[1,2-a]pyridin-3-yl)-N-(pyrrolidin-3-yl)pyridin-2-amine] | 15700 nM | >30.0 min | –
Clc1cn2c(-c3cccc(NC4CCNC4)n3)cnc2cc1OCCN1CCOCC1 (stereo not drawn) [Compound I-40] | 626 nM | >30.0 min | 8 nM
COc1cc2ncc(-c3cccc(NC4CCCNC4)n3)n2cc1-c1cn[nH]c1 (stereo not drawn) [Compound I-29, 6-(7-methoxy-6-(1H-pyrazol-4-yl)imidazo[1,2-a]pyridin-3-yl)-N-(piperidin-3-yl)pyridin-2-amine] | 9350 nM | 9.8 min | –
Clc1ccc2ncc(-c3cccc(NC4CCCNC4)n3)n2c1 (stereo not drawn) [Compound I-17, 6-(6-chloroimidazo[1,2-a]pyridin-3-yl)-N-(piperidin-3-yl)pyridin-2-amine] | – | >30.0 min | –
CCN1CCN(c2ccc3ncc(-c4cccc(NC5CNC5)n4)n3c2)CC1 [Compound I-64] | – | – | 2000 nM
COc1cc2ncc(-c3cccc(OC4CCNC4)n3)n2cc1-c1cn[nH]c1 (stereo not drawn) [Compound I-32, 7-methoxy-6-(1H-pyrazol-4-yl)-3-(6-(pyrrolidin-3-yloxy)pyridin-2-yl)imidazo[1,2-a]pyri-dine] | 3720 nM | 7.7 min | –

SMILES | IC50 (MLL-AF9 NRas cells) | Stability [1] | IC50 (MLL-AF9/FLT3-ITD cells)
Clc1ccc2ncc(-c3cccc(NC4CNC4)n3)n2c1 [Compound I-15, N-(azetidin-3-yl)-6-(6-chloroimidazo[1,2-a]pyridin-3-yl)pyridin-2-amine] | 16600 nM | – | 1180 nM
c1cc(N[C@@H]2CCNC2)nc(-c2cnc3ccc(-c4cn[nH]c4)cn23)c1 [Compound I-43] | – | – | 76 nM
Clc1ccc2ncc(-c3cccc(NC4CCNC4)n3)n2c1 (stereo not drawn) [Compound I-16, 6-(6-chloroimidazo[1,2-a]pyridin-3-yl)-N-(pyrrolidin-3-yl)pyridin-2-amine] | 1760 nM | – | –
c1cc(NC2CNC2)nc(-c2cnc3ccccn23)c1 [Compound I-12, N-(azetidin-3-yl)-6-(imidazo[1,2-a]pyridin-3-yl)pyridin-2-amine] | – | >30.0 min | –
Clc1ccc2ncc(-c3cc(Br)cc(NC4CNC4)n3)n2c1 [Compound I-53] | – | >30.0 min | 4960 nM
Brc1ccc2ncc(-c3cccc(NC4CNC4)n3)n2c1 [Compound I-52] | – | – | 85 nM
N#CCC(=O)N1CC(Nc2cccc(-c3cnc4ccc(Cl)cn34)n2)C1 [Compound I-59] | – | >30.0 min | 205 nM
COc1cc2ncc(-c3cccc(NC4CCNC4)n3)n2cc1-c1c(C)noc1C (stereo not drawn) [Compound I-28, 6-(6-(3,5-dimethylisoxazol-4-yl)-7-methoxyimidazo[1,2-a]pyridin-3-yl)-N-(pyrrolidin-3-yl)pyridin-2-amine] | 14800 nM | – | –
Clc1cc2ncc(-c3cccc(NC4CNC4)n3)n2cc1Cl [Compound I-62] | – | >30.0 min | 154 nM
COc1cc2ncc(-c3cccc(NC4CCNC4)n3)n2cc1Cl (stereo not drawn) [Compound I-21, 6-(6-chloro-7-methoxyimidazo[1,2-a]pyridin-3-yl)-N-(pyrrolidin-3-yl)pyridin-2-amine] | – | 27 min | –
COc1cc(Cl)cn2c(-c3cccc(NC4CNC4)n3)cnc12 [Compound I-42, N-(azetidin-3-yl)-6-(6-chloro-8-methoxyimidazo[1,2-a]pyridin-3-yl)pyridin-2-amine] | 20900 nM | – | –
CN(c1cccc(-c2cnc3ccc(Cl)cn23)n1)C1CCNCC1 [Compound I-51] | – | – | 28 nM
c1cc(NC2CNC2)nc(-c2cnc3ccc(-c4cn[nH]c4)cn23)c1 [Compound I-45] | 4290 nM | – | 460 nM
COc1cc(NC2CNC2)nc(-c2cnc3ccc(Cl)cn23)c1 [Compound I-67, N-(azetidin-3-yl)-6-(6-chloroimidazo[1,2-a]pyridin-3-yl)-4-methoxypyridin-2-amine] | – | >30.0 min | –
c1cc(NC2CCNC2)nc(-c2cnc3ccc(-c4cn[nH]c4)cn23)c1 (stereo not drawn) [Compound I-54, 6-(6-(1H-pyrazol-4-yl)imidazo[1,2-a]pyridin-3-yl)-N-(pyrrolidin-3-yl)pyridin-2-amine] | – | – | 107 nM
COc1cc2ncc(-c3nc(NC4CCNC4)c(F)cc3F)n2cc1-c1cn[nH]c1 (stereo not drawn) [Compound I-33, 3,5-difluoro-6-(7-methoxy-6-(1H-pyrazol-4-yl)imidazo[1,2-a]pyridin-3-yl)-N-(pyrrolidin-3-yl)pyridin-2-amine] | 29800 nM | 9.3 min | –
COc1cc2ncc(-c3cccc(NC4CCNC4)n3)n2cc1-c1ccncc1 (stereo not drawn) [Compound I-23, 6-(7-methoxy-6-(pyridin-4-yl)imidazo[1,2-a]pyridin-3-yl)-N-(pyrrolidin-3-yl)pyridin-2-amine] | 1830 nM | >30.0 min | –
Cc1ccc(-c2cnc3ccc(Cl)cn23)nc1NC1CNC1 [Compound I-48] | – | – | 2790 nM

From US11542261B2, “Substituted Imidazo[1,2-a]-pyridines as IRAK 1/4 and FLT3 inhibitors” (CHILDREN'S HOSPITAL MEDICAL CENTER, priority 2016, dated 2023)
